Test results from US6579902B1, “Ribose-substituted aromatic amides, method for the production and use thereof as medicaments” (Aventis Pharma S.A., priority 1999, dated 2003).
Converted amounts (≈) assume the structure as drawn.

Key:
Format in all cases: cell-based
[1] = tested on: Entero faecalis 02D2UC5; assay: MIC, method of dilutions in a liquid medium; conditions: incubation 24 hours at 37° C.
Experimental: (§1) A—Method of Dilutions in a Liquid Medium
(§2) A series of tubes was prepared in which the same quantity of sterile nutritive medium is distributed. Increasing quantities of the product to be studied are distributed in each tube, then each tube is seeded with a bacterial strain. After incubation for 24 hours in an oven at 37° C., the growth inhibition is evaluated by transillumination which allows the minimum inhibitory concentrations (M.I.C) to be determined, expressed in micrograms/cm^3.

[2] = tested on: Entero faecium 02D3IP2; assay: MIC, method of dilutions in a liquid medium; conditions: incubation 24 hours at 37° C.
Experimental: as §1, §2

[3] = tested on: Staph. Coag. Negative 012HT5; assay: MIC, method of dilutions in a liquid medium; conditions: incubation 24 hours at 37° C.
Experimental: as §1, §2

[4] = tested on: Staph. aureus 011HT18; assay: MIC, method of dilutions in a liquid medium; conditions: incubation 24 hours at 37° C.
Experimental: as §1, §2

[5] = tested on: Staph. epidermidis 0126042; assay: MIC, method of dilutions in a liquid medium; conditions: incubation 24 hours at 37° C.
Experimental: as §1, §2

[6] = tested on: Strepto pneumoniae 030BI2; assay: MIC, method of dilutions in a liquid medium; conditions: incubation 24 hours at 37° C.
Experimental: as §1, §2

[7] = tested on: Strepto. pyogene 02A1UC1; assay: MIC, method of dilutions in a liquid medium; conditions: incubation 24 hours at 37° C.
Experimental: as §1, §2

[8] = tested on: bacterial strain; assay: Activity in vitro, method of dilutions in a liquid medium (overall statement); conditions: summary of the MIC test on the listed strains
Experimental: as §1, §2

Structure (SMILES)	MIC [1]	MIC [2]	MIC [3]	MIC [4]	MIC [5]	MIC [6]	MIC [7]	activity in vitro (in words) [8]
C#CCONC(=O)OC1CC(c2ccc3c(O)c(NC(=O)C(C)C)c(=O)oc3c2C)OC2(CCCC2)C1OC (stereo not drawn) [EX. 11, [7R-(7.α.,8β.,9β.,10.α)]-(2-Propynyloxy)-carbamate of 7-[4-Hydroxy-8-methyl-3-[(2-methyl-1-oxo-propyl)amino]-2-oxo-2H-1-benzopyran-7-yl]-10-methoxy-6-oxaspiro[4,5]decan-9-yl]	0.63 µg/mL (≈ 1.16 µM)	0.32 µg/mL (≈ 0.59 µM)	0.15 µg/mL (≈ 0.276 µM)	≦0.04 μg/ml	≦0.04 μg/ml	≦0.04 μg/ml	0.08 µg/mL (≈ 0.147 µM)	excellent activity
C#CCONC(=O)OC1C(O)C(c2ccc3c(O)c(NC(=O)c4ccccc4)c(=O)oc3c2C)OC2(CCCC2)C1OC (stereo not drawn) [EX. 10, [7R-(7.α.,8.β,9.β,10.α)]-(2-Propynyloxy)-carbamate of 8-Hydroxy-7-[4-hydroxy-8-methyl-2-oxo-3-(benzoylamino)-2H-1-benzopyran-7-yl)-10-methoxy-6-oxaspiro[4,5]decan-9-yl]	1.2 µg/mL (≈ 2.02 µM)	0.63 µg/mL (≈ 1.06 µM)	0.08 µg/mL (≈ 0.135 µM)	≦0.04 μg/ml	≦0.04 μg/ml	≦0.04 μg/ml	0.16 µg/mL (≈ 0.27 µM)	excellent activity
